Experimental data as given in PMC8279417 (Journal of Medicinal Chemistry, 2021).
Read-outs that look alike come from different tables or passages of the source.

How the values were obtained:
[1] = biological target: T1, ERα (Homo sapiens, UniProt P03372); assay: Luciferase reporter gene assay (transactivation), U2OS cells transfected with pSG5-ERα; type: cell-based; conditions: inhibition of E2-induced (0.03 nM) transactivation
T1 sequence (P03372 1-595): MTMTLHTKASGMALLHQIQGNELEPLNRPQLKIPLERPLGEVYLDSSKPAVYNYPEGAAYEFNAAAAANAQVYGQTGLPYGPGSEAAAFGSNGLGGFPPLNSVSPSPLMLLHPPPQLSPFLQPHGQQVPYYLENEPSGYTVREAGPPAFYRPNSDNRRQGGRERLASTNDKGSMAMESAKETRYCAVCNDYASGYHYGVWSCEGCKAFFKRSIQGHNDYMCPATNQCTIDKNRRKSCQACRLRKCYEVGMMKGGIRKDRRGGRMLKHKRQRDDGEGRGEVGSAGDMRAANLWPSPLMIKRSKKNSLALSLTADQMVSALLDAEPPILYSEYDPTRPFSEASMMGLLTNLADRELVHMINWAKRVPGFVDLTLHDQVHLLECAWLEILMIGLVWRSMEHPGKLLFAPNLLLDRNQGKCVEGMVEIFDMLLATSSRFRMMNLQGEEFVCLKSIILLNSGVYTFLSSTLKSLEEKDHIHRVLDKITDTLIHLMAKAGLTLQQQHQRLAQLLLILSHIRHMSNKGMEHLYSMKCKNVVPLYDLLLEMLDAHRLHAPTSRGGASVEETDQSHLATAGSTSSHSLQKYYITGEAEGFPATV

[2] = biological target: T2, ERβ (Homo sapiens, UniProt Q92731); assay: Luciferase reporter gene assay (transactivation), U2OS cells transfected with pSG5-ERβ; type: cell-based; conditions: inhibition of E2-induced (0.3 nM) transactivation
Target sequence in this assay (Q92731 whole entry): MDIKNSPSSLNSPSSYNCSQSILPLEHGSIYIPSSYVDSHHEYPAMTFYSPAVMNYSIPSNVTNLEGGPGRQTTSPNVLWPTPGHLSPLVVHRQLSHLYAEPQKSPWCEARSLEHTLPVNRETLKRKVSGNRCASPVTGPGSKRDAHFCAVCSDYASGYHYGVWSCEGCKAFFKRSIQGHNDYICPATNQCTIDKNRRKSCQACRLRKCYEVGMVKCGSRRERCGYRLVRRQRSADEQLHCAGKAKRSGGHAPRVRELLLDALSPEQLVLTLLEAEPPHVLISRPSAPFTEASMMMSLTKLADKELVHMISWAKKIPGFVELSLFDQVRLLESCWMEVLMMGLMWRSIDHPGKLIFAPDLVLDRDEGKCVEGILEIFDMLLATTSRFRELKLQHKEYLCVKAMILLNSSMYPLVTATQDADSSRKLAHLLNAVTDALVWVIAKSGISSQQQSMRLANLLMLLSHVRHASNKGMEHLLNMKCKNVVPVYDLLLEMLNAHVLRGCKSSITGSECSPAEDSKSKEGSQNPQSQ

[3] = biological target: T1, ERα; assay: In-Cell Western immunoassay, ERα levels in MCF-7 cells; type: cell-based; conditions: for % ERα remaining [1 μM]: MCF-7 cells, 24 h, compared to the solvent control (DMSO)
Method: Degradation was evaluated with the CellTagTM 700 In-Cell Western kit (LI-COR, Lincoln) according to the manufacturer’s protocol. MCF-7 cells were treated, and calculation was performed as previously described.[24]

[4] = biological target: T3, ERα (Homo sapiens, UniProt P03372); conditions: for IC50: read-out: TR-FRET ERα IC50, displacement of fluorescent-labeled E2 from the LBD of ERα; for RBA ERα: relative binding affinity compared to E2 (100%)
T3 sequence (P03372 311-547 limits assumed): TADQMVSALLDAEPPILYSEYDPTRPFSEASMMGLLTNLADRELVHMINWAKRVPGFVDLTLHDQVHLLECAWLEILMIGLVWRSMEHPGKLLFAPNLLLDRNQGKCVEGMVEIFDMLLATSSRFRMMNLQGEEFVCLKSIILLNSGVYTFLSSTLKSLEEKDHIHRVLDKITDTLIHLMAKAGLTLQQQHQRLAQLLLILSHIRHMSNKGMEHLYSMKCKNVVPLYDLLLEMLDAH
Method: (§1) LanthaScreen TR-FRET ER alpha/beta competitive binding assays (Invitrogen, Carlsbad) were used to investigate the binding affinity to the isolated receptors according to the manufacturer′s protocols. Measurement was performed with an Enspire multimode plate reader (PerkinElmer Life Sciences, Waltham). Calculations were performed with Excel (Microsoft, Redmond) and GraphPad Prism (GraphPad Software, San Diego).

[5] = biological target: T2, ERβ; conditions: for IC50: read-out: TR-FRET ERβ IC50, displacement of fluorescent-labeled E2 from the LBD of ERβ; for RBA ERβ: relative binding affinity compared to E2 (100%)
Target sequence in this assay (Q92731 264-498 limits assumed): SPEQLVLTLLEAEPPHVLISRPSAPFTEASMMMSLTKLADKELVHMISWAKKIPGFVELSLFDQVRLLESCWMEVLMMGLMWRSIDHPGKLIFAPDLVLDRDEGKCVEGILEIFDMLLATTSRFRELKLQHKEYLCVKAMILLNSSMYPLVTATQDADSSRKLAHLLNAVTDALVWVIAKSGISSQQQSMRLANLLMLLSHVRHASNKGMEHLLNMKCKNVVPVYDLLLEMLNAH
Method: as §1

[6] = biological target: T3, ERα; assay: TR-FRET coactivator (PGC-1 peptide) recruitment assay, ERα LBD; type: biochemical; conditions: E2 4 nM; for IC50: read-out: inhibition of coactivator recruitment IC50, ERα
Method: drug concentrations: 5 nM to 3 μM) after an incubation time of 10 or 30 min.
Coactivator recruitment was tested using the LanthaScreen® TR-FRET ERα coactivator assay. The binding
of the fluorescein-labeled PGC1a coactivator peptide to the ERα LBD protein labeled with terbium was

[7] = biological target: T2, ERβ; conditions: E2 34 nM, incubation time 30 min; for IC50: read-out: inhibition of coactivator recruitment IC50, ERβ
Target sequence in this assay (Q92731 whole entry): as the sequence (Q92731 whole entry) above

[8] = test system: MCF-7TamR cells; assay: Crystal violet assay, MCF-7TamR cells; type: cell-based
[9] = test system: MCF-7 cells; assay: Crystal violet assay, MCF-7 cells; type: cell-based; conditions: for time to cytocidal effects, MCF-7: time-dependent experiment
[10] = test system: MDA-MB-231 cells; assay: Crystal violet assay, MDA-MB-231 cells; type: cell-based
[11] = MCF7, read-out: % efficacy [1 μM], downregulation of ERα compared to fulvestrant (100%), MCF-7, 1 μM

Structure (SMILES) | IC50 [1] | IC50 [2] | IC50 [4] | RBA ERα [4] | IC50 [5] | RBA ERβ [5] | % ERα remaining [1 μM] [3] | further results
CCC(=C(c1ccc(O)cc1)c1ccc(/C=C/C(=O)NCCCNC(=O)c2ccc(N3CCN(C(=O)CCCCCCCn4c(=S)[nH]c5ccccc5c4=O)CC3)cc2)cc1)c1ccccc1 (mixture of isomers) [Compound 18] | 914 ± 50 nM | 157 ± 22 nM | 4.23 ± 1.12 nM | 7.8% | 6.81 ± 1.86 nM | 10.9% | – | Emax at 1 µM [3, 11]: 64%
CCC(=C(c1ccc(O)cc1)c1ccc(/C=C/C(=O)NCCNC(=O)CCc2nc3cc(OC)ccc3[nH]2)cc1)c1ccccc1 (mixture of isomers) [Compound 31, (E)-3-[4-((E/Z)-1-(4-Hydroxyphenyl)-2-phenylbut-1-enyl)phenyl]-N-[2-(3-(5-methoxy-1H-benzo[d]imidazol-2-yl)propanamido)ethyl]acrylamide] | – | 6.7 ± 2.7 nM | – | 12% | 4.88 ± 2.65 nM | 15.2% | 113.8 ± 4.3% | –
CCC(=C(c1ccc(O)cc1)c1ccc(/C=C/C(=O)NCCCNC(=O)CCc2nc3ccc(OC)cc3[nH]2)cc1)c1ccccc1 (mixture of isomers) [Compound 32, (E)-3-[4-((E/Z)-1-(4-Hydroxyphenyl)-2-phenylbut-1-enyl)phenyl]-N-[3-(3-(5-methoxy-1H-benzo[d]imidazol-2-yl)propanamido)propyl]acrylamide] | 21.5 ± 10.7 nM | 26.9 ± 5.7 nM | 4.11 ± 1.88 nM | 8% | 3.01 ± 4 nM | 24.7% | 120.3 ± 31.6% | –
CCC(=C(c1ccc(O)cc1)c1ccc(/C=C/C(=O)NCCCCNC(=O)CCc2nc3cc(OC)ccc3[nH]2)cc1)c1ccccc1 (mixture of isomers) [Compound 34, (E)-3-[4-((E/Z)-1-(4-Hydroxyphenyl)-2-phenylbut-1-enyl)phenyl]-N-[4-(3-(5-methoxy-1H-benzo[d]imidazol-2-yl)propanamido)butyl]acrylamide] | 34.5 ± 3.5 nM | – | 2.22 ± 0.76 nM | 14.9% | – | – | 132.9 ± 14.1% | –
CCC(=C(c1ccc(O)cc1)c1ccc(/C=C/C(=O)NCCCCCNC(=O)CCc2nc3ccc(OC)cc3[nH]2)cc1)c1ccccc1 (mixture of isomers) [Compound 36, (E)-3-[4-((E/Z)-1-(4-Hydroxyphenyl)-2-phenylbut-1-enyl)phenyl]-N-[5-(3-(5-methoxy-1H-benzo[d]imidazol-2-yl)propanamido)pentyl]acrylamide] | 9.2 ± 3.2 nM | 8.9 ± 4 nM | 1.56 ± 0.63 nM | 21.1% | 7.84 ± 0.25 nM | 9.5% | 130.0 ± 15.1% | IC50 ([6]; incubation time 10 min): 36.3 nM; IC50 ([6]; incubation time 30 min): 153 nM; IC50 [7]: 154 nM
CCC(=C(c1ccc(O)cc1)c1ccc(/C=C/C(=O)NCCCCCCNC(=O)CCc2nc3cc(OC)ccc3[nH]2)cc1)c1ccccc1 (mixture of isomers) [Compound 38, (E)-3-[4-((E/Z)-1-(4-Hydroxyphenyl)-2-phenylbut-1-enyl)phenyl]-N-[6-(3-(5-methoxy-1H-benzo[d]imidazol-2-yl)propanamido)hexyl]acrylamide] | 9.4 ± 2.7 nM | 9 ± 3.3 nM | 2.61 ± 2.25 nM | 12.6% | 5.22 ± 0.65 nM | 14.3% | 101.8 ± 1.9% | T/Ccorr MCF-7TamR [8]: about 40%
CCC(=C(c1ccc(O)cc1)c1ccc(/C=C/C(=O)NCCNC(=O)CCc2nc3cc(O)ccc3[nH]2)cc1)c1ccccc1 (mixture of isomers) [Compound 39, (E)-N-[2-(3-(5-Hydroxy-1H-benzo[d]imidazol-2-yl)propanamido)ethyl]-3-[4-((E/Z)-1-(4-hydroxyphenyl)-2-phenylbut-1-enyl)phenyl]acrylamide] | 26 ± 6.6 nM | – | 1.45 ± 0.37 nM | 22.8% | – | – | 99.2 ± 3.5% | Emax at 1 µM [3, 11]: 1%
CCC(=C(c1ccc(O)cc1)c1ccc(/C=C/C(=O)NCCCNC(=O)CCc2nc3cc(O)ccc3[nH]2)cc1)c1ccccc1 (mixture of isomers) [Compound 40, (E)-N-[3-(3-(5-Hydroxy-1H-benzo[d]imidazol-2-yl)propanamido)propyl]-3-[4-((E/Z)-1-(4-hydroxyphenyl)-2-phenylbut-1-enyl)phenyl]acrylamide] | – | 18.7 ± 8.3 nM | – | – | 3.78 ± 1.54 nM | 19.7% | – | –
CCC(=C(c1ccc(O)cc1)c1ccc(/C=C/C(=O)NCCCCNC(=O)CCc2nc3cc(O)ccc3[nH]2)cc1)c1ccccc1 (mixture of isomers) [Compound 41, (E)-N-[4-(3-(5-Hydroxy-1H-benzo[d]imidazol-2-yl)propanamido)butyl]-3-[4-((E/Z)-1-(4-hydroxyphenyl)-2-phenylbut-1-enyl)phenyl]acrylamide] | – | 15.9 ± 1.7 nM | – | – | 2.84 ± 1.31 nM | 26.2% | – | –
CCC(=C(c1ccc(O)cc1)c1ccc(/C=C/C(=O)NCCCCCNC(=O)CCc2nc3cc(O)ccc3[nH]2)cc1)c1ccccc1 (mixture of isomers) [Compound 42, (E)-N-[5-(3-(5-Hydroxy-1H-benzo[d]imidazol-2-yl)propanamido)pentyl]-3-[4-((E/Z)-1-(4-hydroxyphenyl)-2-phenylbut-1-enyl)phenyl]acrylamide] | 30.9 ± 8.7 nM | 46.5 ± 20.7 nM | 1.28 ± 0.58 nM | 25.7% | 3.81 ± 2.35 nM | 19.5% | 92.0 ± 5.5% | IC50 ([6]; incubation time 10 min): 23.3 nM; Emax at 1 µM [3, 11]: 8%; IC50 [7]: 64 nM
CCC(=C(c1ccc(O)cc1)c1ccc(/C=C/C(=O)NCCCCCCNC(=O)CCc2nc3cc(O)ccc3[nH]2)cc1)c1ccccc1 (mixture of isomers) [Compound 43, (E)-N-[6-(3-(5-Hydroxy-1H-benzo[d]imidazol-2-yl)propanamido)hexyl]-3-[4-((E/Z)-1-(4-hydroxyphenyl)-2-phenylbut-1-enyl)phenyl]acrylamide] | – | 16.1 ± 7 nM | – | – | 7.8 ± 2.3 nM | 9.5% | – | –
CCC(=C(c1ccc(O)cc1)c1ccc(/C=C/C(=O)O)cc1)c1ccccc1 (mixture of isomers) [GW7604, (E/Z)-3-(4-((E)-1-(4-Hydroxyphenyl)-2-phenylbut-1-enyl)phenyl)acrylic acid, reference compound] | – | – | – | – | – | 27.1% | 44.3 ± 12.1% | reduction of PGC-1 binding at ERα ([6]; 1 μM, after 10 min of incubation): completely reduced; coactivator binding ([6]; 5 μM, after 30 min, ERα): 45%; Emax at 1 µM ([3]; MCF7, read-out: % efficacy [1 μM]): 56%; T/Ccorr MCF-7TamR [8]: 68%; repression of PGC1 binding at ERβ ([7]; 3 μM): complete repression
CC/C(=C(\c1ccc(O)cc1)c1ccc(OCCN(C)C)cc1)c1ccccc1 [4-OHT, (Z)-4-hydroxytamoxifen] | – | – | – | – | – | – | – | T/Ccorr MCF-7 ([9]; 10 μM, 120 h): −55%; time to cytocidal effects, MCF-7 ([9]; 10 μM): 48 h; time to cytocidal effects, MCF-7 ([9]; 20 μM): 24 h; T/Ccorr MCF-7TamR ([8]; 10 μM, 120 h): −57%; T/Ccorr MDA-MB-231 ([10]; 10 μM, 120 h): 10%; time to cytocidal effects, MDA-MB-231 ([10]; 20 μM, time-dependent experiment): 24 h
C[C@]12CC[C@@H]3c4ccc(O)cc4C[C@@H](CCCCCCCCC[S+]([O-])CCCC(F)(F)C(F)(F)F)[C@H]3[C@@H]1CC[C@@H]2O (stereo partly shown) [fulvestrant, reference compound] | – | – | – | – | – | 10.0% | – | –
